# In US20240194290A1, “HIDDEN ANTIBIOTICS IN THE HUMAN PROTEOME” (THE TRUSTEES OF THE UNIVERSITY OF PENNSYLVANIA, priority 2021, published 2024):
# Ends that are not written are not given here.
# Tested on: B. fragilis ATCC25285
# Assay: Outer membrane permeabilization (NPN uptake) assay
# Type: cell-based, Bacteroides fragilis
# Conditions: peptides at MIC
# Procedure: FIG. 10. Membrane permeabilization and depolarization assays for several bacterial strains. […] FIG. 10B: Cytoplasmic membrane depolarization assays performed against P. aeruginosa PAO1 and the gut commensal B. fragilis ATCC25285.
# Methods: Membrane depolarization assays. The cytoplasmic membrane depolarization activity of the peptides was determined by measurements of fluorescence of the membrane potential-sensitive dye, DiSC3(5). Briefly, A. baumannii ATCC19606, P. aeruginosa PAO1 and B. fragilis ATCC25285 were grown at 37° C. with agitation until they reached mid-log phase (OD600=0.5). […] Thereafter, the cells (100 μL) were incubated for 15 min with 20 nmol L^−1 of DiSC3(5) until a stable reduction of fluorescence was achieved, indicating the incorporation of the dye into the bacterial membrane. Membrane depolarization was then monitored by observing the change in the fluorescence emission intensity of the membrane potential-sensitive dye, DiSC3(5) (λex=622 nm, λem=670 nm), after the addition of peptides (100 μL solution at MIC values). […] The membrane permeability of the peptides was determined by using the N-phenyl-1-napthylamine (NPN) uptake assay. […] The background fluorescence was recorded at λex=350 nm and λem=420 nm. […]
sequence,measurement,value
SKEMFPRSFIKLLRSKVSRFLRPYK [SCUB1-SKE25],outer membrane permeabilization (NPN),permeabilized
